# Laboratory results from ChEMBL document CHEMBL1128124, “Inhibitors of acyl-CoA: Cholesterol O-acyl transferase (ACAT) as hypocholesterolemic agents. 13. Design, synthesis and biological evaluation of tetrazole anilides as potent inhibitors of ACAT in vitro and hypocholesterolemic agents in vivo” (Bioorg Med Chem Lett, 1995).
# Columns and labels:
# Rattus norvegicus [1] = experiment: Percent change in total cholesterol in cholic acid (0.5%)-cholesterol (1.5%)-peanut oil (5.5%)-fed rats after administration of 30 mg/kg was determined.; format: functional
# Rattus norvegicus [2] = experiment: Percent change in total cholesterol in cholic acid (0.5%)-cholesterol (1.5%)-peanut oil (5.5%)-fed rats after administration of 30 mg/kg was determined; format: functional
# Rattus norvegicus [3] = experiment: Percent change in total cholesterol in cholic acid (0.5%)-cholesterol (1.5%)-peanut oil (5.5%)-fed rats after administration of 30 mg/kg for 7 days was determined; format: functional
# Rattus norvegicus [4] = experiment: Percent change in total cholesterol in cholic acid (0.5%)-cholesterol (1.5%)-peanut oil (5.5%)-fed rats after administration of 3 mg/kg was determined; format: functional
# Rattus norvegicus [5] = experiment: Percent change in total cholesterol in cholic acid (0.5%)-cholesterol (1.5%)-peanut oil (5.5%)-fed rats after administration of 3 mg/kg for 7 days was determined.; format: functional
# Rattus norvegicus [6] = experiment: Percent change in total cholesterol in cholic acid (0.5%)-cholesterol (1.5%)-peanut oil (5.5%)-fed rats after administration of 3 mg/kg was determined.; format: functional
# Rattus norvegicus [7] = experiment: Percent change in total cholesterol in cholic acid (0.5%)-cholesterol (1.5%)-peanut oil (5.5%)-fed rats after administration of 10 mg/kg for 7 days was determined.; format: functional
# Rattus norvegicus [8] = experiment: Percent change in total cholesterol in cholic acid (0.5%)-cholesterol (1.5%)-peanut oil (5.5%)-fed rats after administration of 3 mg/kg for 7 days was determined; format: functional
# Rattus norvegicus [9] = experiment: Percent change in total cholesterol in cholic acid (0.5%)-cholesterol (1.5%)-peanut oil (5.5%)-fed rats after administration of 10 mg/kg for 7 days was determined; format: functional
# [10] = biological target: T1, Sterol O-acyltransferase 1 (Rattus norvegicus, UniProt O70536); experiment: Concentration required for the in vitro inhibition of Acyl coenzyme A:cholesterol acyltransferase (ACAT) in liver microsomes isolated from cholesterol-fed rats was determined; design: species or system Microsome
# T1 sequence (O70536 whole entry): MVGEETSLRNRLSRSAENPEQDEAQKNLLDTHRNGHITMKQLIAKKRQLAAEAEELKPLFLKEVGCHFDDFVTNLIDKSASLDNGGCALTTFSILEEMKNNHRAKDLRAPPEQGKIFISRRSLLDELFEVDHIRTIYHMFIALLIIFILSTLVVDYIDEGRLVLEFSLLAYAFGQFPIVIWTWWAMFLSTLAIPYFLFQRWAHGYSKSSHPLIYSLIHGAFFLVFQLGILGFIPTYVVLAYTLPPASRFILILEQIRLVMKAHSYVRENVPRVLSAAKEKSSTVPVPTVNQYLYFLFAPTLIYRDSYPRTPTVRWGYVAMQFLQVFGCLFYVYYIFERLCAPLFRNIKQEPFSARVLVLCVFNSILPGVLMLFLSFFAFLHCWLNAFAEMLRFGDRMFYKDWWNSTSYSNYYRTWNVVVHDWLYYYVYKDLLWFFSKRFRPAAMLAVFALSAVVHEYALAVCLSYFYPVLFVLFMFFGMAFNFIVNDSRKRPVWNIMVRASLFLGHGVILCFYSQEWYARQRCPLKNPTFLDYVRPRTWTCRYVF
smiles,measurement,setting,value
CCCCCCCCCCCCn1nnnc1C(C(=O)Nc1c(OC)cc(OC)cc1OC)c1ccccc1 (stereo not drawn),Change TC,Rattus norvegicus [1],-38%
CCCCCCCCCCCCn1nnnc1C(C(=O)Nc1c(C(C)C)cccc1C(C)C)c1ccccc1 (stereo not drawn),Change TC,Rattus norvegicus [2],-44%
same,Change TC,Rattus norvegicus [3],-24%
CCCCCCCCCCCCn1nnc(C(C(=O)Nc2c(C(C)C)cccc2C(C)C)c2ccccc2)n1 (stereo not drawn),Change TC,Rattus norvegicus [4],-46%
same,Change TC,Rattus norvegicus [2],-49%
same,Change TC,Rattus norvegicus [3],-38%
CCCCCCCCCCCCn1nnc(C(C(=O)Nc2c(OC)cc(OC)cc2OC)c2ccccc2)n1 (stereo not drawn),Change TC,Rattus norvegicus [5],-23%
same,Change TC,Rattus norvegicus [6],-65%
same,Change TC,Rattus norvegicus [7],-59%
same,Change TC,Rattus norvegicus [1],-63%
"CCCCCCCCCCCCn1nnc(C(C(=O)Nc2c(OC)cc(OC)cc2OC)c2ccccc2)n1 (single isomer, unassigned; (+))",Change TC,Rattus norvegicus [8]; 3 mg/kg,-55%
same,Change TC,Rattus norvegicus [4]; 3 mg/kg,-66%
same,Change TC,Rattus norvegicus [2]; 30 mg/kg,-68%
same,Change TC,Rattus norvegicus [9]; 10 mg/kg,-60%
CCCCCCCCCCCCn1nnc(C(C(=O)Nc2c(OC)cc(OC)cc2OC)c2ccccc2)n1 (stereo in doubt; 8-(-)),IC50,[10],330 nM
same,Change TC,Rattus norvegicus [8]; 3 mg/kg,7%
same,Change TC,Rattus norvegicus [4]; 3 mg/kg,-47%
same,Change TC,Rattus norvegicus [2]; 30 mg/kg,-64%
same,Change TC,Rattus norvegicus [9]; 10 mg/kg,-11%
CCCCCCCCCCC(C)(C)C(=O)Nc1c(OC)cc(OC)cc1OC [CL-976],Change TC,Rattus norvegicus [8],-12%
same,Change TC,Rattus norvegicus [4],-15%
same,Change TC,Rattus norvegicus [2],-57%
same,Change TC,Rattus norvegicus [9],-17%
